Columns and labels:
monocytes = assay: Mitochondrial ROS production (MitoSOX) in human monocytes; assay type: cell-based; conditions: healthy donor monocytes, ATP 3 mM 30 min (FIG. 5f)
P2X7 receptor [1] = assay: Electron microscopy of mitochondria after ATP; assay type: cell-based
P2X7 receptor [2] = assay: Mitochondrial membrane depolarization (JC-10) after P2X7 receptor stimulation with ATP in monocytes and macrophages; assay type: cell-based, mouse; conditions: ATP 3 mM
Text: FIG. 5. P2X7 receptor induces mitochondrial membrane depolarization. (a) Mitochondrial membrane potential from blood monocytes stained with JC-10 in a control healthy donor (left), in a septic patient at day 1 (middle), and from healthy controls, abdominal surgery and septic patients at day 1 or 120 (right); PE^− cells represent the monocytes with mitochondrial depolarization. (b) Correlation between the percentage of monocytes with mitochondrial membrane depolarization and the quantification of P2X7 receptor MFI in monocytes from the septic patients; IC: immunocompromised septic patients. (c) Kinetics of mitochondrial depolarization after ATP (3 mM) stimulation of LPS-primed BMDMs incubated or not with the P2X7 receptor antagonist A438079 (10 μM). (d) Percentage of human monocytes from healthy donors with mitochondrial membrane depolarization after ATP (3 mM, 30 min) stimulation and incubated or not with the P2X7 receptor antagonist AZ11645373 (10 μM). […]
Mitochondrial membrane potential was measured using the JC-10 dye (Abcam) in BMDMs with a Sinergy Mx plate reader (BioTek) or by flow cytometry using the BD FACS Celesta flow cytometer (BD Biosciences), or in human monocytes (CD14^+ labelled with anti-CD14 APC-H7, clone MφP9, BD Biosciences) using FACS Canto (BD Biosciences), following the indications of manufacturer.

Cell death (LDH assay) = assay type: cell-based
Method: Presence of LDH in cell-free supernatants was measured using the Cytotoxicity Detection kit (Roche) following the manufacturer's instructions.

Nc1ncnc2c1ncn2[C@@H]1O[C@H](COP(=O)(O)OP(=O)(O)OP(=O)(O)O)[C@@H](O)[C@H]1O [ATP, adenosine triphosphate]
mitochondrial ROS production (monocytes): an increase in mitochondrial ROS production
damage to the mitochondria (electron microscopy) (P2X7 receptor [1]): no damage to the mitochondria
mitochondrial swelling (electron microscopy) (P2X7 receptor [1]): a swelling of the mitochondria
mitochondrial membrane depolarization by the agent itself (P2X7 receptor [2]): induced
cell death (Cell death (LDH assay)): did not induce cell death
